Drawing on PMC6148290, “Endogenous metabolites of vitamin E limit inflammation by targeting 5-lipoxygenase” (Nature Communications, 2018), this text covers IC50 for one molecule.

The target in this test is T1, COX-1 (Homo sapiens, UniProt P23219).
T1 construct: Freshly isolated human platelets (1 × 10^8) were pre-incubated with LCMs; endogenous in cells; host or cells: washed human platelets
The test is described as follows: COX-1 activity (12-HHT formation) in washed platelets. Format: cell-based. As to the method:
Freshly isolated human platelets (1 × 10^8) were pre-incubated with LCMs for 5 min at room temperature. Formation of COX-1-derived 12-HHT was initiated by addition of exogenous AA (5 µM).

Broadly, the IC50 is the concentration at which inhibition is half-maximal. A lower IC50 goes with greater potency.

T1 sequence (P23219 24-599): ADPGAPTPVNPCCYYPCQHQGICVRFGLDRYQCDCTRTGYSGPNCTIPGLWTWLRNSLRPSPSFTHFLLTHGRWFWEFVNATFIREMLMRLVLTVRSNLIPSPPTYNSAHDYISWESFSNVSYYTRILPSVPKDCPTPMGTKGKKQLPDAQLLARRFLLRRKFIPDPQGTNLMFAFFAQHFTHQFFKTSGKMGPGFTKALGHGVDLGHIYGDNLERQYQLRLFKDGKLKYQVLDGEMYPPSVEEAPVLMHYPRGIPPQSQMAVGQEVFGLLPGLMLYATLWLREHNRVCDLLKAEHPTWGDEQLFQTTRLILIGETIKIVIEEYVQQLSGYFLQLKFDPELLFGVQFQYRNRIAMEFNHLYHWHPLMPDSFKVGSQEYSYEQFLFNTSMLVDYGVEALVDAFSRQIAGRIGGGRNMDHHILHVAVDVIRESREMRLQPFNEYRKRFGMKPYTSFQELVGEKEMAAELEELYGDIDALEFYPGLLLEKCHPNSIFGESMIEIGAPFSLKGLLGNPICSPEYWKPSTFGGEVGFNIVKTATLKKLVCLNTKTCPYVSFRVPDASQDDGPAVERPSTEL

Molecule `Cc1c(C)c2c(c(C)c1O)CC[C@@](C)(CCCC(C)CCCC(C)CCCC(C)C(=O)O)O2` (stereo partly drawn) [4a, 13-((2R)-6-hydroxy-2,5,7,8-tetramethylchroman-2-yl)-2,6,10-trimethyltridecanoic acid] yielded an IC50 of 6.9 µM.
